Data reported in patent publication US8017786B2, “Substituted β-phenyl-α-hydroxy-propanoic acid, synthesis method and use thereof” (Northwest University, priority 2006, dated 2011).

System: anesthetized rats
Assay: Blood pressure and left ventricular function of anesthetized rats
Assay type: in vivo, rat
Set-up: contractive pressure, change ratio: unit not given here
Protocol: All data were input into PowerLab/8Sp data acquisition and processing system via RM-6000 multi-channel polygraph, and recorded, analyzed and processed by PowerLab/8Sp.
The abdomen was opened 1.5 cm below xiphoid bone to isolate duodenum, a small incision was formed on the duodenum away from blood vessels by ophthalmic scissors, a catheter was inserted and the incision was fixed by suture for administration. After the end of operation and a further waiting period of 30 min, normal data were recorded once the indexes to be monitored were stable.
Test drugs were duodenally administered via the catheter, and the indexes were monitored 5, 15, 30, 60, 90 and 120 min after the administration. The change ratios of the indexes were calculated in accordance with the following formula, and were used for statistic analysis among groups.

[1] = 9 mg/kg duodenal, 60 min after administration
[2] = 9 mg/kg duodenal, 90 min after administration
[3] = 9 mg/kg duodenal, 120 min after administration
[4] = 9 mg/kg duodenal, before administration
[5] = 18 mg/kg duodenal, 5 min after administration
[6] = 18 mg/kg duodenal, 15 min after administration
[7] = 18 mg/kg duodenal, 30 min after administration
[8] = 18 mg/kg duodenal, 60 min after administration
[9] = 18 mg/kg duodenal, 90 min after administration
[10] = 18 mg/kg duodenal, 120 min after administration
[11] = 18 mg/kg duodenal, before administration
[12] = 18 mg/kg, significant at 15, 30, 60, 90 and 120 min

For `CC1(C)C2CCC1(C)C(OC(=O)C(O)Cc1ccc(O)c(O)c1)C2` (stereo not drawn) [bornyl salvianate ester, bornyl β-(3,4-dihydroxylphenyl)-α-hydroxylpropionate ester], the “contractive pressure, change ratio” value [1] was −12.63 ± 11.39, the diastolic pressure [1] was 59.10 ± 16.07 mmHg and the “diastolic pressure, change ratio” value [1] was −14.30 ± 13.75. For the same compound, the heart rate [1] was 359.61 ± 39.30 beat/min, the “heart rate, change ratio” value [1] was −4.52 ± 7.13 and the left intraventricular pressure [1] was 119.77 ± 23.09 mmHg. The “left intraventricular pressure, change ratio” value [1] was −6.84 ± 8.75, the mean arterial pressure [1] was 77.89 ± 18.11 mmHg and the “mean arterial pressure, change ratio” value [1] was −13.46 ± 12.43. The “change-rate of left intraventricular pressure MAX” value [2] was 5113.5 ± 1356.4 mmHg/s, the “change-rate of left intraventricular pressure MAX, change ratio” value [2] was −6.4 ± 13.2 and the “change-rate of left intraventricular pressure, -MAX” value [2] was −3629.7 ± 1013.3 mm/Hg/s. The “change-rate of left intraventricular pressure, -MAX, change ratio” value (from here on “change-rate … -MAX, change ratio”) [2] was −7.2 ± 13.3, the contractive pressure [2] was 120.90 ± 31.83 mmHg and the “contractive pressure, change ratio” value [2] was −8.80 ± 16.65. For the same compound, the diastolic pressure [2] was 63.12 ± 19.81 mmHg, the “diastolic pressure, change ratio” value [2] was −8.83 ± 17.11 and the heart rate [2] was 354.38 ± 62.30 beat/min. The “heart rate, change ratio” value [2] was −4.13 ± 17.94, the left intraventricular pressure [2] was 122.40 ± 26.58 mmHg and the “left intraventricular pressure, change ratio” value [2] was −4.88 ± 11.37. The mean arterial pressure [2] was 82.38 ± 23.18 mmHg, the “mean arterial pressure, change ratio” value [2] was −8.77 ± 16.66 and the “change-rate of left intraventricular pressure MAX” value [3] was 4959.8 ± 1399.0 mmHg/s. For the same compound, the “change-rate of left intraventricular pressure MAX, change ratio” value [3] was −9.7 ± 11.2, the “change-rate of left intraventricular pressure, -MAX” value [3] was −3541.7 ± 917.7 mm/Hg/s and the “change-rate … -MAX, change ratio” value [3] was −9.2 ± 11.3. The contractive pressure [3] was 120.85 ± 32.13 mmHg, the “contractive pressure, change ratio” value [3] was −9.19 ± 14.65 and the diastolic pressure [3] was 62.58 ± 22.20 mmHg. The “diastolic pressure, change ratio” value [3] was −10.28 ± 17.60, the heart rate [3] was 354.09 ± 47.98 beat/min and the “heart rate, change ratio” value [3] was −4.62 ± 12.34. The left intraventricular pressure [3] was 121.85 ± 26.36 mmHg, the “left intraventricular pressure, change ratio” value [3] was −5.47 ± 9.76 and the mean arterial pressure [3] was 82.00 ± 25.04 mmHg. For the same compound, the “mean arterial pressure, change ratio” value [3] was −9.71 ± 15.95, the “change-rate of left intraventricular pressure MAX” value [4] was 5435.8 ± 1200.0 mmHg/s and the “change-rate of left intraventricular pressure, -MAX” value [4] was −3881.3 ± 735.6 mm/Hg/s. For the same compound, the contractive pressure [4] was 132.26 ± 20.00 mmHg, the diastolic pressure [4] was 69.21 ± 15.19 mmHg and the heart rate [4] was 373.43 ± 41.28 beat/min. For the same compound, the left intraventricular pressure [4] was 128.29 ± 18.38 mmHg, the mean arterial pressure [4] was 90.23 ± 16.25 mmHg and the “mean arterial pressure, systolic pressure and diastolic pressure (in words)” value (9 mg/kg, significant at 15 and 60 min) was “exhibited a decrease tendency”. For the same compound, the “dp/dt (in words)” value (9 mg/kg, significant at 60 and 120 min) was “exhibited a decrease tendency”, the “left intraventricular pressure (in words)” value (9 mg/kg, significant at 60 min) was “exhibited a decrease tendency” and the “change-rate of left intraventricular pressure MAX” value [5] was 5694.7 ± 1264.7 mmHg/s. For the same compound, the “change-rate of left intraventricular pressure MAX, change ratio” value [5] was −0.3 ± 9.3, the “change-rate of left intraventricular pressure, -MAX” value [5] was −4103.4 ± 981.2 mm/Hg/s and the “change-rate … -MAX, change ratio” value [5] was 0.0 ± 7.8. For the same compound, the contractive pressure [5] was 128.34 ± 28.96 mmHg, the “contractive pressure, change ratio” value [5] was −0.06 ± 12.42 and the diastolic pressure [5] was 72.55 ± 16.58 mmHg. For the same compound, the “diastolic pressure, change ratio” value [5] was −1.00 ± 14.79, the heart rate [5] was 358.56 ± 44.88 beat/min and the “heart rate, change ratio” value [5] was 0.22 ± 4.94. For the same compound, the left intraventricular pressure [5] was 131.90 ± 18.96 mmHg, the “left intraventricular pressure, change ratio” value [5] was −0.01 ± 7.29 and the mean arterial pressure [5] was 91.15 ± 20.31 mmHg. For the same compound, the “mean arterial pressure, change ratio” value [5] was −0.58 ± 13.53, the “change-rate of left intraventricular pressure MAX” value [6] was 5470.3 ± 1416.7 mmHg/s and the “change-rate of left intraventricular pressure MAX, change ratio” value [6] was −4.7 ± 11.8. For the same compound, the “change-rate of left intraventricular pressure, -MAX” value [6] was −3991.9 ± 948.6 mm/Hg/s, the “change-rate … -MAX, change ratio” value [6] was −2.4 ± 9.3 and the contractive pressure [6] was 120.90 ± 26.54 mmHg. The “contractive pressure, change ratio” value [6] was −5.49 ± 14.53, the diastolic pressure [6] was 68.87 ± 14.57 mmHg and the “diastolic pressure, change ratio” value [6] was −5.45 ± 15.82. For the same compound, the heart rate [6] was 356.00 ± 40.82 beat/min, the “heart rate, change ratio” value [6] was −0.07 ± 9.93 and the left intraventricular pressure [6] was 126.28 ± 18.51 mmHg. The “left intraventricular pressure, change ratio” value [6] was −4.15 ± 8.95, the mean arterial pressure [6] was 86.21 ± 18.29 mmHg and the “mean arterial pressure, change ratio” value [6] was −5.52 ± 14.99. The “change-rate of left intraventricular pressure MAX” value [7] was 5186.9 ± 1177.3 mmHg/s, the “change-rate of left intraventricular pressure MAX, change ratio” value [7] was −8.9 ± 11.5 and the “change-rate of left intraventricular pressure, -MAX” value [7] was −3923.8 ± 879.8 mm/Hg/s. The “change-rate … -MAX, change ratio” value [7] was −3.9 ± 8.2, the contractive pressure [7] was 117.76 ± 22.90 mmHg and the “contractive pressure, change ratio” value [7] was −7.74 ± 12.22. For the same compound, the diastolic pressure [7] was 66.68 ± 11.95 mmHg, the “diastolic pressure, change ratio” value [7] was −7.68 ± 16.90 and the heart rate [7] was 348.07 ± 39.21 beat/min. The “heart rate, change ratio” value [7] was −2.01 ± 12.45, the left intraventricular pressure [7] was 124.81 ± 18.94 mmHg and the “left intraventricular pressure, change ratio” value [7] was −5.46 ± 7.09. For the same compound, the mean arterial pressure [7] was 83.71 ± 15.31 mmHg, the “mean arterial pressure, change ratio” value [7] was −7.79 ± 14.45 and the “change-rate of left intraventricular pressure MAX” value [8] was 4905.3 ± 1047.7 mmHg/s. For the same compound, the “change-rate of left intraventricular pressure MAX, change ratio” value [8] was −12.4 ± 18.7, the “change-rate of left intraventricular pressure, -MAX” value [8] was −3744.3 ± 851.5 mm/Hg/s and the “change-rate … -MAX, change ratio” value [8] was −7.9 ± 14.0. The contractive pressure [8] was 106.97 ± 32.22 mmHg, the “contractive pressure, change ratio” value [8] was −16.34 ± 19.90 and the diastolic pressure [8] was 60.98 ± 16.13 mmHg. The “diastolic pressure, change ratio” value [8] was −15.66 ± 21.14, the heart rate [8] was 357.22 ± 47.10 beat/min and the “heart rate, change ratio” value [8] was 0.39 ± 13.05. The left intraventricular pressure [8] was 120.67 ± 23.43 mmHg, the “left intraventricular pressure, change ratio” value [8] was −8.71 ± 11.64 and the mean arterial pressure [8] was 76.31 ± 21.36 mmHg. The “mean arterial pressure, change ratio” value [8] was −16.01 ± 20.44, the “change-rate of left intraventricular pressure MAX” value [9] was 4676.5 ± 941.1 mmHg/s and the “change-rate of left intraventricular pressure MAX, change ratio” value [9] was −16.7 ± 15.5. For the same compound, the “change-rate of left intraventricular pressure, -MAX” value [9] was −3659.3 ± 806.3 mm/Hg/s, the “change-rate … -MAX, change ratio” value [9] was −9.2 ± 16.9 and the contractive pressure [9] was 104.23 ± 32.16 mmHg. For the same compound, the “contractive pressure, change ratio” value [9] was −18.68 ± 18.21, the diastolic pressure [9] was 60.29 ± 15.88 mmHg and the “diastolic pressure, change ratio” value [9] was −16.74 ± 18.37. For the same compound, the heart rate [9] was 355.33 ± 9.61 beat/min, the “heart rate, change ratio” value [9] was −0.44 ± 6.91 and the left intraventricular pressure [9] was 117.91 ± 22.68 mmHg. The “left intraventricular pressure, change ratio” value [9] was −10.81 ± 11.60, the mean arterial pressure [9] was 74.94 ± 21.07 mmHg and the “mean arterial pressure, change ratio” value [9] was −17.64 ± 18.17. For the same compound, the “change-rate of left intraventricular pressure MAX” value [10] was 5012.6 ± 777.5 mmHg/s, the “change-rate of left intraventricular pressure MAX, change ratio” value [10] was −10.9 ± 12.4 and the “change-rate of left intraventricular pressure, -MAX” value [10] was −3692.1 ± 863.3 mm/Hg/s. The “change-rate … -MAX, change ratio” value [10] was −8.8 ± 16.9, the contractive pressure [10] was 113.34 ± 24.47 mmHg and the “contractive pressure, change ratio” value [10] was −10.88 ± 16.04. For the same compound, the diastolic pressure [10] was 61.54 ± 13.73 mmHg, the “diastolic pressure, change ratio” value [10] was −14.64 ± 19.58 and the heart rate [10] was 357.68 ± 53.26 beat/min. The “heart rate, change ratio” value [10] was 0.28 ± 12.04, the left intraventricular pressure [10] was 119.85 ± 22.26 mmHg and the “left intraventricular pressure, change ratio” value [10] was −9.13 ± 13.16. For the same compound, the mean arterial pressure [10] was 78.81 ± 17.04 mmHg, the “mean arterial pressure, change ratio” value [10] was −12.96 ± 17.66 and the “change-rate of left intraventricular pressure MAX” value [11] was 5695.0 ± 1086.8 mmHg/s. For the same compound, the “change-rate of left intraventricular pressure, -MAX” value [11] was −4092.0 ± 905.4 mm/Hg/s, the contractive pressure [11] was 128.25 ± 23.86 mmHg and the diastolic pressure [11] was 73.04 ± 11.87 mmHg. The heart rate [11] was 357.28 ± 36.29 beat/min, the left intraventricular pressure [11] was 131.93 ± 16.79 mmHg and the mean arterial pressure [11] was 91.44 ± 15.44 mmHg. For the same compound, the “dp/dt (in words)” value [12] was “significantly decreased”, the “left intraventricular pressure (in words)” value [12] was “significantly decreased” and the “mean arterial pressure, systolic pressure and diastolic pressure (in words)” value (18 mg/kg, significant at 15, 60, 90 and 120 min) was “significantly decreased”.
